# Measured values published in US20220054617A1, “SUBUNIT VACCINE CONSTRUCTS FOR FLAVIVIRUSES” (priority 2018, published 2022).
# How the values were obtained:
# albumin = details: human, non-human primate, pig, rabbit, rat, mouse; cited from earlier work
# TLR-7 = TLR-7 (Homo sapiens, UniProt Q9NYK1); details: in vitro
# TLR-8 = TLR-8 (Homo sapiens, UniProt Q9NR97); details: in vitro
# [1] = test system: human whole blood or PBMCs
# Sequence of TLR-8 (Q9NR97 27-1041): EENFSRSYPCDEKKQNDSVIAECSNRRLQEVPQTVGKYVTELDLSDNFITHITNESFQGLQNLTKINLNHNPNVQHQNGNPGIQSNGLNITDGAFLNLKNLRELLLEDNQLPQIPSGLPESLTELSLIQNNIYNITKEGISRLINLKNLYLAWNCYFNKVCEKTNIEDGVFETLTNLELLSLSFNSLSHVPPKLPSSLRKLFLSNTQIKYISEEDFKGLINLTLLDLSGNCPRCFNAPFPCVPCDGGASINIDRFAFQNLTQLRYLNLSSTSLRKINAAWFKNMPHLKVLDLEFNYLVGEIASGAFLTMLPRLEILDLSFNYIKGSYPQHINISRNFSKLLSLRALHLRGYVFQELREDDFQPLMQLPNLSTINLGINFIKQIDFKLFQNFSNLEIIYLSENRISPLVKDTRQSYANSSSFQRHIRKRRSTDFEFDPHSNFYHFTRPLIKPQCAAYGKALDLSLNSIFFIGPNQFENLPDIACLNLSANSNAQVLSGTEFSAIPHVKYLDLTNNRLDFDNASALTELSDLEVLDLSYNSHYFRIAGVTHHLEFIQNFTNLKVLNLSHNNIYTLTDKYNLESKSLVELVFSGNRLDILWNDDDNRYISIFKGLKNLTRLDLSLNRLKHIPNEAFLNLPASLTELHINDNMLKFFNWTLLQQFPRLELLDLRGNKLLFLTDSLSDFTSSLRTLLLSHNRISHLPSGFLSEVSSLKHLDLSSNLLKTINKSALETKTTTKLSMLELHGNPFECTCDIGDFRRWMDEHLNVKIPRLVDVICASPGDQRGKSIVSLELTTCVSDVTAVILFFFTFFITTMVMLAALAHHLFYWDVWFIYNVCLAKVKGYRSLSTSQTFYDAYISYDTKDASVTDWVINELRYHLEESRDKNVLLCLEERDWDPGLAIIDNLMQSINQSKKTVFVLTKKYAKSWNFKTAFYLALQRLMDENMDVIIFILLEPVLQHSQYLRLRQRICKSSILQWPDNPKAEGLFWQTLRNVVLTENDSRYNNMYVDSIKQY
# Sequence of TLR-7 (Q9NYK1 27-1049, species assumed): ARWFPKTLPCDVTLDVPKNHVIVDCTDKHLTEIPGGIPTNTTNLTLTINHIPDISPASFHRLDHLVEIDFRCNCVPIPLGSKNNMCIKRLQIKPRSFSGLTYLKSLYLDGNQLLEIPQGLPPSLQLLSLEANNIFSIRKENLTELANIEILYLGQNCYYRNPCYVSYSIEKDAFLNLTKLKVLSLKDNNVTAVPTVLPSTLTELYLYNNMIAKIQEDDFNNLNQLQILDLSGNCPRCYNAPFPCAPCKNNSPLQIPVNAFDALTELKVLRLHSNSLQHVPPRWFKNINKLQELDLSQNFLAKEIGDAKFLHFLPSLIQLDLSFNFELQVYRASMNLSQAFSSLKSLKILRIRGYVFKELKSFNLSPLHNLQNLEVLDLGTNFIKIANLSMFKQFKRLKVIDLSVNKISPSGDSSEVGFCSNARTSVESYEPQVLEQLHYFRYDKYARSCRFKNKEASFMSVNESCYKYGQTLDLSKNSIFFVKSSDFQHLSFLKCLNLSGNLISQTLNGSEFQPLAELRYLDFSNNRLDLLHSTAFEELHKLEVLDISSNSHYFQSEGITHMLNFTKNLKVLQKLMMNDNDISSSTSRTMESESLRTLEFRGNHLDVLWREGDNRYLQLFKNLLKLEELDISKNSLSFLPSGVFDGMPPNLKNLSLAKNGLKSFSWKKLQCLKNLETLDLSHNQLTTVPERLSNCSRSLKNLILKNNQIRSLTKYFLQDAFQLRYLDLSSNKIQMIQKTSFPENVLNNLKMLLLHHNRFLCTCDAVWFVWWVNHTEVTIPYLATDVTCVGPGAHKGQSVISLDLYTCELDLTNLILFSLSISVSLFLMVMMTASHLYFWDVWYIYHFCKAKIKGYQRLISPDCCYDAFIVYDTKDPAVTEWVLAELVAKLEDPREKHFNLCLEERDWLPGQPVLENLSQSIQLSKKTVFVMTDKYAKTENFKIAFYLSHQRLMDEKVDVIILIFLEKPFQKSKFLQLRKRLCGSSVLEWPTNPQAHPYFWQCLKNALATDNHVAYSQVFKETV
Substance,binding to albumin (albumin),activity in TLR-7 primary assay (TLR-7),activity in TLR-8 primary assay (TLR-8),adjuvant effect (ZIKV; in vivo),"elicitation of neutralizing antibodies after the first boost (ZIKV; with the ZIKV antigen, several candidate adjuvants examined, preliminary screens)",cytokine induction [1]
"SGP portion: portion of the Streptococcal G protein used as N-terminal tag, SEQ ID NO: 14 (LAEAKVLANRELDKYGVSDYYKNLINNAKTVEGVKALIDEILAALPK)",good binding,–,–,–,–,–
covalent conjugate of an imidazoquinoline TLR7/TLR8 dual agonist [5-(3-(aminomethyl)benzyl)-3-pentylquinolin-2-amine] with hyaluronic acid [EY-4-143],–,inactive,inactive,potent adjuvant,consistently elicit neutralizing antibodies after the first boost,silent
